# Measured values taken from ChEMBL document CHEMBL1909046, “DrugMatrix in vitro pharmacology data”.
# What was measured:
# [1] = DRUGMATRIX: Sodium/nucleoside co-transporter radioligand binding (ligand: nitrobenzylthioinosine); assay type: cell membranes, Cavia porcellus, Dunkin-Hartley, Cerebral cortex, Membrane; settings: Not Active = under 50% inhibition at 10 µM
# [2] = molecular target: Beta-2 adrenergic receptor (Homo sapiens, UniProt P07550); experiment: DRUGMATRIX: Adrenergic beta2 radioligand binding (ligand: [3H] CGP-12177); assay type: cell membranes, Membrane; settings: cho; Not Active = under 50% inhibition at 10 µM
# [3] = molecular target: Sodium-dependent noradrenaline transporter (Homo sapiens, UniProt P23975); experiment: DRUGMATRIX: Norepinephrine Transporter radioligand binding (ligand: [125I] RTI-55); assay type: cell membranes, MDCK, Membrane; settings: mdck; Not Active = under 50% inhibition at 10 µM
# Chain of Sodium-dependent noradrenaline transporter (P23975 whole entry): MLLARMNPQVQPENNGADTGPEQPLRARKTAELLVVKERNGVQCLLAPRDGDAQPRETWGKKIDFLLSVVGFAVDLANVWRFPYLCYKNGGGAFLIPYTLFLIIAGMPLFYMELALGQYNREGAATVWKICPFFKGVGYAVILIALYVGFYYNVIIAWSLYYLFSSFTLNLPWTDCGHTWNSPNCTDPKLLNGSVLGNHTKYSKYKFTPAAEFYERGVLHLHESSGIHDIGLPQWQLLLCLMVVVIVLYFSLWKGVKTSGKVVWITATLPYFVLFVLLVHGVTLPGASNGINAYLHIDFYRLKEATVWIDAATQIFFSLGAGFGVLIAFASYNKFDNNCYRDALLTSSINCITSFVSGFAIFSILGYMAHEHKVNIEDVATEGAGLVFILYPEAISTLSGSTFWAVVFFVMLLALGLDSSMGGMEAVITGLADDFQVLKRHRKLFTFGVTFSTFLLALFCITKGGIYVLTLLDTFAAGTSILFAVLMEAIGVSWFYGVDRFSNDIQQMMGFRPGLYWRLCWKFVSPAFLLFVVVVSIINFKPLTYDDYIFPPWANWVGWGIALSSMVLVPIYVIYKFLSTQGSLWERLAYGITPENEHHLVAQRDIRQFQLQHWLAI
# [4] = DRUGMATRIX: Interleukin IL-1 radioligand binding (ligand: [125I] interleukin 1beta); assay type: cell membranes, Membrane; settings: nih3t3; Not Active = under 50% inhibition at 10 µM
# Melanocortin receptor 4 = Melanocortin receptor 4 (Homo sapiens, UniProt P32245); assay type: cell membranes, Membrane; settings: hek293; also: in other assays of this panel Not Active means under 50% inhibition at 10 µM
# Chain of Melanocortin receptor 4 (P32245 whole entry): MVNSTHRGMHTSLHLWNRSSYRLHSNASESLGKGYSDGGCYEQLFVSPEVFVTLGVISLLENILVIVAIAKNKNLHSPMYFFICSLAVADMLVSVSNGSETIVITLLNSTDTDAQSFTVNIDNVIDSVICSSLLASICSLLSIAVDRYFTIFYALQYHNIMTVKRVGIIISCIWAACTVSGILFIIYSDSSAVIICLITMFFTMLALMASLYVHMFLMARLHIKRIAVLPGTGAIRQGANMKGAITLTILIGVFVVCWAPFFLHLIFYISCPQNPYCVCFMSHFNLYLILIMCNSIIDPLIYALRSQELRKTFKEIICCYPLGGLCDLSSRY
# Melanocortin receptor 5 = Melanocortin receptor 5 (Homo sapiens, UniProt P33032); assay type: cell membranes, HEK293, Membrane; settings: hek293; also: in other assays of this panel Not Active means under 50% inhibition at 10 µM
# Chain of Melanocortin receptor 5 (P33032 whole entry): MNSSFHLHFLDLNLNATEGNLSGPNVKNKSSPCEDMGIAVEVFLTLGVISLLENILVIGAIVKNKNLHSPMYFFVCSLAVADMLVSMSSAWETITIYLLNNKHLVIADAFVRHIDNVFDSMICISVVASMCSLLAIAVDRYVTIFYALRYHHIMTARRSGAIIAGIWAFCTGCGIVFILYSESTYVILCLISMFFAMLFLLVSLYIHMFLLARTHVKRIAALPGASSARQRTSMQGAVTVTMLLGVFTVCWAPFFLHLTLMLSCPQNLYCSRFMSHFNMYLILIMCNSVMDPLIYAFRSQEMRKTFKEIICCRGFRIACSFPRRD
# [5] = molecular target: T1, Muscarinic acetylcholine receptor M4 (Homo sapiens, UniProt P08173); assay type: cell membranes, CHO-K1, Membrane; settings: cho-k1; also: in other assays of this panel Not Active means under 50% inhibition at 10 µM
# T1 sequence (P08173 whole entry): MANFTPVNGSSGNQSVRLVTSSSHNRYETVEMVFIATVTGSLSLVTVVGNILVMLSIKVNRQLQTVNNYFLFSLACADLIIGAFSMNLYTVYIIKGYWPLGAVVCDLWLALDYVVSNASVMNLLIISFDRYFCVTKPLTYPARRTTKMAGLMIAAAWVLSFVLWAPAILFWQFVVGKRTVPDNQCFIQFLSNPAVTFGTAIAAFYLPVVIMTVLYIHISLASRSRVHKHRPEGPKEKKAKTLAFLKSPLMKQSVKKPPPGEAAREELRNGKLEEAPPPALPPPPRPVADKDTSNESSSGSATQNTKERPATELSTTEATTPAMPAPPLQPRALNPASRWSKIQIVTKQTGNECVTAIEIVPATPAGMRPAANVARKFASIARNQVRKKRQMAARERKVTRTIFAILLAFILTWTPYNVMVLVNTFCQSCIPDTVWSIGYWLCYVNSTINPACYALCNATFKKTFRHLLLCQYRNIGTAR
# [6] = molecular target: T2, Muscarinic acetylcholine receptor M5 (Homo sapiens, UniProt P08912); assay type: cell membranes, CHO-K1, Membrane; settings: cho-k1; also: in other assays of this panel Not Active means under 50% inhibition at 10 µM
# T2 sequence (P08912 whole entry): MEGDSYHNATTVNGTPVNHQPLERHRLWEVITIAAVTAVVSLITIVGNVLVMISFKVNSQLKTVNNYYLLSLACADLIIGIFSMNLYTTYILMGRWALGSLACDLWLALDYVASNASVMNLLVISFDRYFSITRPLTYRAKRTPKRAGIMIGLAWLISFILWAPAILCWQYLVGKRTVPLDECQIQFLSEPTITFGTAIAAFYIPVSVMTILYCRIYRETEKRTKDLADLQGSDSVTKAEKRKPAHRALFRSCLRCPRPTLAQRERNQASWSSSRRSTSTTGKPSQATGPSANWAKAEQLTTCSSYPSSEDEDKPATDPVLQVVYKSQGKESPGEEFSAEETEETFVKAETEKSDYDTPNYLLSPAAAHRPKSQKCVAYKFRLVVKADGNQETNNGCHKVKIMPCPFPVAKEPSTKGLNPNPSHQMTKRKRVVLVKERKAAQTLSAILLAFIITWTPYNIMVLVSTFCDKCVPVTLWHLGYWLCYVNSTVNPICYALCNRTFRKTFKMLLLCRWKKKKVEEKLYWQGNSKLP
# [7] = molecular target: T3, Neuropeptide Y receptor type 2 (Homo sapiens, UniProt P49146); assay type: cell membranes, Membrane; settings: kan-ts; also: in other assays of this panel Not Active means under 50% inhibition at 10 µM
# T3 sequence (P49146 whole entry): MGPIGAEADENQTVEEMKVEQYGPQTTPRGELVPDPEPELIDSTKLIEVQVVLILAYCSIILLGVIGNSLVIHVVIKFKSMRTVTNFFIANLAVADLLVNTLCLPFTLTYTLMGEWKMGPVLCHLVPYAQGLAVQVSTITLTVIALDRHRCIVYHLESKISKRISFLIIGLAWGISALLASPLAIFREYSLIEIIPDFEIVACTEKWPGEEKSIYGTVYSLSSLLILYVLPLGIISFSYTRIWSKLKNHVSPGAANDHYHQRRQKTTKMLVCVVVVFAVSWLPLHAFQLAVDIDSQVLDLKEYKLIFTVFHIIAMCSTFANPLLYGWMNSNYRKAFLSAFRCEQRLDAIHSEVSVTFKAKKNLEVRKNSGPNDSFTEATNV
# [8] = molecular target: Platelet-activating factor receptor (Homo sapiens, UniProt P25105); experiment: biochemical; assay type: tissue-based; settings: platelet; also: in other assays of this panel Not Active means under 50% inhibition at 10 µM
# Chain of Platelet-activating factor receptor (P25105 whole entry): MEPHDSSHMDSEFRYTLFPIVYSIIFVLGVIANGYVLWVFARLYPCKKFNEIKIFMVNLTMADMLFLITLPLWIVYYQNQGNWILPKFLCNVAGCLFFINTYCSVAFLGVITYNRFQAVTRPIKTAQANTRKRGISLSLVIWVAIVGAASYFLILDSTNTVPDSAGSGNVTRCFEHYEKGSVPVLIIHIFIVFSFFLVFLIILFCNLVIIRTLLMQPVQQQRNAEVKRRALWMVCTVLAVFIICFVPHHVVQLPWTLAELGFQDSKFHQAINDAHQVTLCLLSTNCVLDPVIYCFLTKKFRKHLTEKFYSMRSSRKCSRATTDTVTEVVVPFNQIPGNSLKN
# Interstitial collagenase = molecular target: T4, Interstitial collagenase (Homo sapiens, UniProt P03956); assay type: tissue-based, Rheumatoid synovial fibroblasts
# T4 sequence (P03956 whole entry): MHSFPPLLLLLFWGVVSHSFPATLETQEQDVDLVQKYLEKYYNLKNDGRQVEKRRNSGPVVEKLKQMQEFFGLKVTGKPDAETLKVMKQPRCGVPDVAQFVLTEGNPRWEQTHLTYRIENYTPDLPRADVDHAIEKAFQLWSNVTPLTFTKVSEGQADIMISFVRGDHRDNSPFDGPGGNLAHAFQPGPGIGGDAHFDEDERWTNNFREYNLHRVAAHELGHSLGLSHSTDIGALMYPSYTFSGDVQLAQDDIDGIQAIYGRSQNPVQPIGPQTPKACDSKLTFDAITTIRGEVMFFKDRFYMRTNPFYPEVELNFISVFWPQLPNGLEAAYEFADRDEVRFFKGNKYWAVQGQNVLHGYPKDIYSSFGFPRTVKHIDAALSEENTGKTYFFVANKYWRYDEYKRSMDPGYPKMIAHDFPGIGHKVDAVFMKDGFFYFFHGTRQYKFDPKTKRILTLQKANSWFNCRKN
# [9] = molecular target: 5-hydroxytryptamine receptor 1B (Rattus norvegicus, UniProt P28564); assay type: cell membranes, Wistar, Cerebral cortex, Membrane; also: in other assays of this panel Not Active means under 50% inhibition at 10 µM
# Chain of 5-hydroxytryptamine receptor 1B (P28564 whole entry): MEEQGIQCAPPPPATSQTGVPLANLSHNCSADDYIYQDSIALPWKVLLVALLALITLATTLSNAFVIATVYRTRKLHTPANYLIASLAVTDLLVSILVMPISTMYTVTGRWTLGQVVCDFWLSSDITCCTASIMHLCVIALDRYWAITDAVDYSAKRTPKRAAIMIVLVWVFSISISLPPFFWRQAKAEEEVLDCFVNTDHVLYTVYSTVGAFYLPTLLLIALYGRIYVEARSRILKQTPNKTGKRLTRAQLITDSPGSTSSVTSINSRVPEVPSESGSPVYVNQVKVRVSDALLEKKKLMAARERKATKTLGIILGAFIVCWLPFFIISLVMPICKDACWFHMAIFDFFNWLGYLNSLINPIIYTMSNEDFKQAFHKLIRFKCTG
# Cytochrome P450 2C19 = Cytochrome P450 2C19 (Homo sapiens, UniProt P33261); settings: bti-tn-5b1-4; also: in other assays of this panel Not Active means under 50% inhibition at 10 µM
# Chain of Cytochrome P450 2C19 (P33261 whole entry): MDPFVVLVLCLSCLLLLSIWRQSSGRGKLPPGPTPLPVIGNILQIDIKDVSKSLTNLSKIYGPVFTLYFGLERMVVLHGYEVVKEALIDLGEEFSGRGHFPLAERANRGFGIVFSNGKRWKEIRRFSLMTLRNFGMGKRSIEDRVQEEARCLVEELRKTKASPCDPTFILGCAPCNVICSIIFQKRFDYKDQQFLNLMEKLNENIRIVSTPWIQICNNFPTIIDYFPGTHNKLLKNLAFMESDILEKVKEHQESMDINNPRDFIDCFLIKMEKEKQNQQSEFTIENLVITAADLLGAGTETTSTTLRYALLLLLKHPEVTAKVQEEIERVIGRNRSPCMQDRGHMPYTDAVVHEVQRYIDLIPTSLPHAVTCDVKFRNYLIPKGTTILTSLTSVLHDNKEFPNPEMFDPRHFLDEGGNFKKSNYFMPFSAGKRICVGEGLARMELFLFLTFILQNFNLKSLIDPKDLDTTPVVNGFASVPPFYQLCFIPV
Molecule,IC50 [1],Ki [1],IC50 [2],IC50 [3],IC50 [4],Ki [4],IC50 (Melanocortin receptor 4),IC50 (Melanocortin receptor 5),IC50 [5],IC50 [6],IC50 [7],IC50 [8],IC50 (Interstitial collagenase),IC50 [9],IC50 (Cytochrome P450 2C19),Ki (Cytochrome P450 2C19),Ki [2],Ki [3],Ki (Melanocortin receptor 4),Ki [5],other results
CN1C(C(=O)Nc2ccccn2)=C(O)c2ccccc2S1(=O)=O [PIROXICAM],Not Active,Not Active,Not Active,Not Active,Not Active,Not Active,Not Active,Not Active,Not Active,Not Active,Not Active,Not Active,Not Active,Not Active,Not Active,Not Active,,,,,
CCC1(c2ccccc2)C(=O)NCNC1=O [PRIMIDONE],Not Active,Not Active,Not Active,Not Active,Not Active,Not Active,Not Active,Not Active,Not Active,Not Active,Not Active,Not Active,Not Active,Not Active,Not Active,Not Active,,,,,
CCCc1cc(=O)[nH]c(=S)[nH]1 [PROPYLTHIOURACIL],Not Active,Not Active,Not Active,Not Active,Not Active,Not Active,Not Active,Not Active,Not Active,Not Active,Not Active,Not Active,Not Active,Not Active,Not Active,Not Active,,,,,
CARBOPLATIN,Not Active,Not Active,Not Active,Not Active,Not Active,Not Active,Not Active,Not Active,Not Active,Not Active,Not Active,Not Active,Not Active,Not Active,Not Active,Not Active,Not Active,Not Active,Not Active,Not Active,Ki (Melanocortin receptor 5): Not Active; Ki [6]: Not Active; Ki [7]: Not Active; Ki [8]: Not Active; Ki (Interstitial collagenase): Not Active; Ki [9]: Not Active
CISPLATIN,Not Active,Not Active,Not Active,Not Active,Not Active,Not Active,Not Active,,Not Active,Not Active,Not Active,Not Active,Not Active,Not Active,Not Active,Not Active,Not Active,Not Active,Not Active,Not Active,IC50 (Melanocortin receptor 5; read-out: IC50): 6.43 µM; Ki (Melanocortin receptor 5; read-out: Ki): 6.04 µM; Ki [6]: Not Active; Ki [7]: Not Active; Ki [8]: Not Active; Ki (Interstitial collagenase): Not Active; Ki [9]: Not Active
GOLD SODIUM THIOMALATE,Not Active,Not Active,Not Active,Not Active,Not Active,Not Active,Not Active,Not Active,Not Active,Not Active,Not Active,Not Active,Not Active,Not Active,Not Active,Not Active,Not Active,Not Active,Not Active,Not Active,Ki (Melanocortin receptor 5): Not Active; Ki [6]: Not Active; Ki [7]: Not Active; Ki [8]: Not Active; Ki (Interstitial collagenase): Not Active; Ki [9]: Not Active
OXALIPLATIN,Not Active,Not Active,Not Active,Not Active,Not Active,Not Active,Not Active,Not Active,Not Active,Not Active,Not Active,Not Active,Not Active,Not Active,Not Active,Not Active,Not Active,Not Active,Not Active,Not Active,Ki (Melanocortin receptor 5): Not Active; Ki [6]: Not Active; Ki [7]: Not Active; Ki [8]: Not Active; Ki (Interstitial collagenase): Not Active; Ki [9]: Not Active
